# Experimental data: patent US7449495B2, “Retinoid derivatives with antiangiogenic, antitumoral and proapoptotic activities” (Sigma-Tau Industrie Farmaceutiche Riunite S.p.A., priority 2001, dated 2008)
# Legend:
# [1] = test system: no small cell lung carcinoma A431; experiment: Cytotoxicity test (sulphorodamine B), A431; assay type: cell-based; details: Homo sapiens, A-431, 24 h incubation, survival 48 h after removal
# Source text: (§1) Different cell lines deriving from solid tumors were also used. • 1. Human prostate carcinoma PC3 and DU145. These cell lines were maintained in RPMI 1640 medium containing 10% FCS, 1% sodium pyruvate and 1% glutamine; • 2. Human colon adenocarcinoma LoVo. This cell line was maintained in HAM's F-12 medium, containing 10% FCS and 1% glutamine. • 3. Human ovarian carcinoma such as A2780 and A2780/Dx, sensitive and resistant to drugs, respectively (doxorubicin, taxol, etoposide, vincristine); IGROV-1 and IGROV-1/Pt, sensitive and resistant to platinum-based chemotherapy, respectively, were maintained in RPMI 1640 medium containing 10% FCS, 1% sodium pyruvate and 1% glutamine; • 4. Human melanoma MeWo and MeS 2.21, glioblastoma GBM, no small cell lung carcinomas A431, NCI—H460, osteosarcomas SAOS and U2OS were maintained in RPMI 1640 medium containing 10% FCS, 1% sodium pyruvate and 1% glutamine.
# (§2) The cytotoxicity tests were carried out using NB4 or HL-60 cells in suspension (10000/well). The cells were seeded in a volume of 250 μl in 96 well plates and incubated for 24 hours at 37° C. […] The optical density was measured using a Multiskan spectrophotometer at 540 nm. […]
# (§3) Cell survival was determined by incubation with ST1926 for 24 hours, 48 hours after the removal of the compound. […]
# [2] = test system: Human colon adenocarcinoma LoVo; experiment: Cytotoxicity test (sulphorodamine B), LoVo; assay type: cell-based; details: 24 h incubation, survival 48 h after removal, read-out: IC50
# Source text: as §1, §2, §3
# [3] = test system: Murine pulmonary adenocarcinoma Madison 109 (M109); experiment: Antitumoral activity in murine pulmonary carcinoma model M109; assay type: in vivo, BALB/c mouse; details: qdx5x3w; for TVI %: 2 days after final administration
# Procedure: Murine pulmonary adenocarcinoma Madison 109 cells (M109) were maintained by s.c. passage of tumor fragments. The day of inoculation, the cell suspension was injected i.m. in the rear left limb of a 20 g male BALB/c mouse at a density of 3×10^5 cells/mouse. 3LL murine Lewis lung carcinoma was routinely maintained by i.m. passages (every 10-14 days) of 1×10^5 cells/mouse in C57BL/6J mice. For antitumor activity experiments, tumors were excised from donor mice and after mechanical desegregation and enzymatic digestion tumor cell viability was assessed by the trypan blue dye exclusion test. Then, 1×10^5 cells/100 μl/mouse were injected i.m. into the right hind leg muscle of C57BL/6J mice.
# Tumor dimension measurements were performed using a digital calliper (Vernier Caliper) from the day in which the mass became measurable, twice weekly. The tumor mass was assessed from the size of the two principal dimensions (length and breadth), expressed in mm, applying the formula (length×breadth^2)/2 that is, the tumor volume in mm3. For every experimental group the percentage of inhibition of tumor volume (TVI %) was calculated, with respect to that of the control that is (100−(T/C %). TVI was evaluated 2 days after the final administration of ST1926.
# The mean survival time (MST) was also measured and the increase in mean life-span expressed as ILS % (increase of life span) calculated as (MSTT/MSTC)×100−100.
# The comparison between the values of TVI and of survival time, obtained for each group were performed with the non parametric Mann Whitney test for non paired data, using the Instat software from GraphPad inc.
# The ST1926 solution was prepared immediately before use and solubilised in cremophor:ethanol 1:1 and subsequently diluted 1:4 in buffered saline solution. The treatments of the animals were carried out in a volume of 10 ml/kg. The treatment scheme for ST1926 at different doses was for 5 consecutive days (qdx5), beginning 1 day after the inoculation with the tumoral cells and was repeated for 3 cycles.
# The mice (8 for each group) were weighed prior to each treatment, firstly, so as to be able to administer the correct quantity of substance, based on the eventual variations in weight observed throughout the period of drug administration, and also to be able to register the maximum weight loss throughout the treatment (BWL % max).
smiles,measurement,setting,value
"O=C(O)/C=C/c1ccc(-c2ccc(O)c(C34CC5CC(CC(C5)C3)C4)c2)cc1 [ST1926, E-4-(3-(1-adamantyl)-4-hydroxyphenyl)cinnamic acid]",IC50,[1],250 nM
same,IC50,[2],240 nM
same,BWL % Max,"[3]; M109, 10 mg/kg i.p.",9%
same,ILS %,"[3]; M109, 10 mg/kg i.p.",27%
same,MST (range days),"[3]; M109, 10 mg/kg i.p.",*28 (25-35) days
same,TVI %,"[3]; M109, 10 mg/kg i.p.",18%
same,BWL % Max,"[3]; M109, 10 mg/kg p.o.",10%
same,ILS %,"[3]; M109, 10 mg/kg p.o.",59%
same,MST (range days),"[3]; M109, 10 mg/kg p.o.",**35 (27-42) days
same,TVI %,"[3]; M109, 10 mg/kg p.o.",*49%
same,BWL % Max,"[3]; M109, 15 mg/kg i.p.",10%
same,ILS %,"[3]; M109, 15 mg/kg i.p.",64%
same,MST (range days),"[3]; M109, 15 mg/kg i.p.",**36 (30-42) days
same,TVI %,"[3]; M109, 15 mg/kg i.p.",*46%
